Test results reported in US12703706B2, “Anthelmintic compounds comprising a thienopyridine structure” (Intervet Inc., priority 2020, dated 2026).

Legend:
Haemonchus contortus = experiment: In vivo efficacy against Haemonchus contortus in jirds; conditions: in Meriones unguiculatus, 72 h, read-out: reduction of the Haemonchus contortus count
Procedure: In Vivo Assay: Efficacy Against Haemonchus contortus in Jirds
The jirds were orally infected with approximately 1500 third-stage larvae of Haemonchus contortus. Ten days after infection, the jirds in the treatment groups were treated once either orally or subcutaneously with compounds at a dose of 10 mg per kg bodyweight. For treatment, compounds were dissolved in a mixture of 10% Transcutol, 10% Cremophor EL and 80% physiological sodium chloride solution. Three days after treatment, the jirds were necropsied, and the larvae burden in the stomach was determined. The efficacy was defined as the reduction of the mean larvae count in the infected jirds of the treatment group in comparison to the infected jirds in an untreated control group (negative control).

[1] = biological target: human Maxi K channel (BK channel), KCNMA1 (KCa1.1) and beta1 (KCNMB1) subunits (Homo sapiens, UniProt Q12791)
Procedure: In Vitro Assay: Agonistic Activity at the Human Maxi K Channel (BK Channel)
A CHO K1 cell line was stably transfected with the KCNMA1 (KCa1.1, U11058) and betal (KCNMB1) subunits of the human Maxi K channel (Ponte et al, Molecular Pharmacology 2012, 81(4), 567-577).
Cells were seeded in microtiter plates (black 384-well MTP, clear bottom) in a concentration of 20,000 cells/well in 25 μl medium and cultured for 20 to 24 hours at 37° C. and 5% CO2. After incubation, 25 μl of FMP-dye Blue-Tyrode's was added to each well and incubated at room temperature for 30 min. Ten minutes after addition of 12.5 μl compound solution, the plates are transferred to the FLIPR for measurement.
For the membrane potential measurements, plates were placed in the FLIPR Penta (Molecular Devices). The baseline measurement of the fluorescence was stared for 20 sec (Exc. 510-545 nm, Emm. 565-625 nm). Potential channel opening measurement was started by addition of 25 μl KCl-Tyrode (final assay concentration of the KCl-Tyrode: 70 mM KCl, 2 mM CaCl2, 1 mM MgCl2, 0.8 mM NaH2PO4, 5 mM Glucose, 28 mM Hepes, pH 7.4, including the voltage sensitive dye). The complete measurement takes 150 s.
EC50 values were determined in triplicate utilizing compound dilution series. The data were determined at least in two independent tests. The data were proceeded by using the ActivityBase XE Runner software (IDBS) for curve fitting and calculation of the half-maximal effective concentration.

[2] = test system: D. immitis microfilaria (L1); experiment: In vitro assay Dirofilaria immitis L1, motility of microfilaria; type: cell-based; conditions: 72 h, read-out: EC50 value, Dirofilaria immitis L1, reduction in motility vs DMSO, incubation 3 days
[3] = test system: A. viteae microfilaria (L1); experiment: In vitro assay Acanthocheilonema viteae L1, motility of microfilaria; conditions: 72 h, read-out: EC50 value, Acanthocheilonema viteae L1, reduction in motility vs DMSO, incubation 3 days
Procedure: Approximately 500 A. viteae microfilaria were added to a microtiter plate containing a nutrient medium and the test compound in DMSO at varying concentrations. After incubation for 3 days, activity was evaluated as reduction in motility as compared to DMSO as negative control.
Compounds were tested in duplicates. Based on the concentration response curves EC50 values were calculated.

Sequence of human Maxi K channel (BK channel), KCNMA1 (KCa1.1) and beta1 (KCNMB1) subunits (Q12791 1-1178 isoform Q12791-5): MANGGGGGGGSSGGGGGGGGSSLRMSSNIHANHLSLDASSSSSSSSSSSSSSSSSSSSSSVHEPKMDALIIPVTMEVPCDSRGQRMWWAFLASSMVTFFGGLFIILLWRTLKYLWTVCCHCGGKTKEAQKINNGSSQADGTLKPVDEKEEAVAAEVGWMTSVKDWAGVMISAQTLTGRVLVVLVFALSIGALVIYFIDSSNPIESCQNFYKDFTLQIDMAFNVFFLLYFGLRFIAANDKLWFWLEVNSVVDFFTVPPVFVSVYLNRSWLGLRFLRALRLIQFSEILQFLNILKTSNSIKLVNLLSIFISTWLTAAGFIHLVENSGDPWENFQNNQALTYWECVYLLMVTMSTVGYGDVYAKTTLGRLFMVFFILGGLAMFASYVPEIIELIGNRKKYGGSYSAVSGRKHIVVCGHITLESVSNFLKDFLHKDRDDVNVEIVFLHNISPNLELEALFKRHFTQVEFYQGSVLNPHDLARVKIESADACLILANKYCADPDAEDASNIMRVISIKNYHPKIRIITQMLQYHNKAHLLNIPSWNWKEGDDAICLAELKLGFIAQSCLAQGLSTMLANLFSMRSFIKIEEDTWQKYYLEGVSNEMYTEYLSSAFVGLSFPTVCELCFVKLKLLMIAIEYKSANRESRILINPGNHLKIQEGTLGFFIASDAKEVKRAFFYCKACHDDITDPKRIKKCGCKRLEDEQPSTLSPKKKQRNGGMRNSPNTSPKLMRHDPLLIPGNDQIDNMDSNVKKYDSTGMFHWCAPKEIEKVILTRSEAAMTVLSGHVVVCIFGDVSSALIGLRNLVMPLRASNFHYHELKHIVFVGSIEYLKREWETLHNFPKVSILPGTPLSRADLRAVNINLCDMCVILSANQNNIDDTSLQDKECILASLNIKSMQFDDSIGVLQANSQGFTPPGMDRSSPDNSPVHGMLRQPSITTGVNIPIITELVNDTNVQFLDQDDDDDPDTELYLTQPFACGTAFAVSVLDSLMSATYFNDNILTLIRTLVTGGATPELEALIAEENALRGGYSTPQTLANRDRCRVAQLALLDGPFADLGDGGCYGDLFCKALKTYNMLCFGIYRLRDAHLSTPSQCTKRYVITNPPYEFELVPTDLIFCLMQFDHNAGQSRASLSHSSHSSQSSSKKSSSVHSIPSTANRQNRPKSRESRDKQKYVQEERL
Sequence of human Maxi K channel (BK channel), KCNMA1 (KCa1.1) and beta1 (KCNMB1) subunits (Q16558 whole entry partner): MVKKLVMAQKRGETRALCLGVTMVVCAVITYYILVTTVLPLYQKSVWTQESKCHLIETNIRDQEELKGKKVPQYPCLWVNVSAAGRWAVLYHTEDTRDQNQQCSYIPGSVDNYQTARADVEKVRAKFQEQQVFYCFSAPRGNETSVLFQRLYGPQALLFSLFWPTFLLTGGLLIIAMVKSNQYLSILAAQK

Row | SMILES | EC50 [1] | also measured
1 | CN(C)c1c(C(=O)N[C@H]2CCOc3ccccc32)cnc2c(-c3cccc(Cl)c3Cl)csc12 [Compound 10] | > 30 µM | inhibition in vivo at 10 mg/kg (Haemonchus contortus): ≥ 80%
2 | O=C(Nc1cccc2ccccc12)c1cnc2c(-c3cccc(Cl)c3Cl)csc2c1N1CCOCC1 [Compound 14] | > 30 µM | EC50 [2]: < 10 µM
3 | CN1CCN(c2c(C(=O)N[C@H]3CCOc4ccccc43)cnc3c(-c4cccc(Cl)c4Cl)csc23)CC1 [Compound 17] | > 30 µM | EC50 [2]: < 10 µM; EC50 [3]: < 10 µM
4 | Cc1sc2c(N(C)C)c(C(=O)N[C@H]3CCOc4ccccc43)cnc2c1-c1cccc(Cl)c1Cl [Compound 36, (S)—N-(chroman-4-yl)-3-(2,3-dichlorophenyl)-7-dimethylamino-2-methylthieno[3,2-b]pyridine-6-carboxamide] | > 30 µM | inhibition in vivo at 10 mg/kg (Haemonchus contortus): ≥ 80%
5 | Cc1sc2c(N(C)C)c(C(=O)N[C@H]3CCOc4ccccc43)cnc2c1-c1cc(Cl)cc(Cl)c1 [Compound 53] | > 30 µM | inhibition in vivo at 10 mg/kg (Haemonchus contortus): ≥ 80%
6 | Cc1sc2c(N3CC(F)(F)C3)c(C(=O)N[C@H]3CCOc4ccccc43)cnc2c1-c1cccc(Cl)c1Cl [Compound 56] | > 30 µM | inhibition in vivo at 10 mg/kg (Haemonchus contortus): ≥ 80%
7 | Cc1sc2c(N3CC(F)C3)c(C(=O)N[C@H]3CCOc4ccccc43)cnc2c1-c1cccc(Cl)c1Cl [Compound 62] | > 30 µM | inhibition in vivo at 10 mg/kg (Haemonchus contortus): ≥ 80%
8 | Cc1sc2c(N3CC(F)C3)c(C(=O)N[C@H]3CCOc4ccccc43)cnc2c1-c1cc(Cl)cc(Cl)c1 [Compound 65] | > 30 µM | inhibition in vivo at 10 mg/kg (Haemonchus contortus): ≥ 80%
9 | Cc1sc2c(N3CCOCC3)c(C(=O)N[C@H]3CCOc4ccccc43)cnc2c1-c1cc(Cl)cc(Cl)c1 [Compound 68] | > 30 µM | inhibition in vivo at 10 mg/kg (Haemonchus contortus): ≥ 80%
10 | Cc1sc2c(N3CCOCC3)c(C(=O)N[C@H]3CCOc4ccccc43)cnc2c1-c1cccc(Cl)c1Cl [Compound 72] | > 30 µM | inhibition in vivo at 10 mg/kg (Haemonchus contortus): ≥ 80%
11 | O=C(NC1COc2ccccc21)c1cnc2c(-c3cccc(Cl)c3)csc2c1N1CCOCC1 (stereo not shown) [Compound 80] | > 30 µM | EC50 [2]: < 10 µM
12 | O=C(N[C@H]1CCOc2ccccc21)c1cnc2c(-c3cc(F)cc(F)c3)csc2c1N1CCC1 [Compound 83] | > 30 µM | 
13 | O=C(N[C@H]1CCOc2ccccc21)c1cnc2c(-c3cc(F)cc(F)c3F)csc2c1N1CCC1 [Compound 84] | > 30 µM | 
14 | O=C(N[C@H]1CCOc2ccccc21)c1cnc2c(-c3cccc(F)c3F)csc2c1N1CCC1 [Compound 85] | > 30 µM | 
15 | O=C(N[C@H]1CCOc2ccccc21)c1cnc2c(-c3cc(F)cc(F)c3)csc2c1NC1CC1 [Compound 86] | > 30 µM | 
16 | O=C(N[C@H]1CCOc2ccccc21)c1cnc2c(-c3cccc(F)c3F)csc2c1NC1CC1 [Compound 87] | > 30 µM | 
17 | O=C(N[C@H]1CCOc2ccccc21)c1cnc2c(-c3cc(F)cc(F)c3F)csc2c1NC1CC1 [Compound 88] | > 30 µM | 
18 | O=C(N[C@H]1CCOc2ccccc21)c1cnc2c(-c3cccc(C(F)(F)F)c3)csc2c1NC1CC1 [Compound 89] | > 30 µM | 
19 | O=C(N[C@H]1CCOc2ccccc21)c1cnc2c(-c3cccc(C(F)(F)F)c3)csc2c1N1CCC1 [Compound 90] | > 30 µM | 
20 | O=C(N[C@H]1CCOc2ccccc21)c1cnc2c(-c3cccc(F)c3F)csc2c1N1CC(F)C1 [Compound 91] | > 30 µM | 
21 | O=C(N[C@H]1CCOc2ccccc21)c1cnc2c(-c3cc(F)cc(F)c3)csc2c1N1CC(F)C1 [Compound 92] | > 30 µM | 

Row | SMILES | EC50 [1] | also measured
22 | O=C(N[C@H]1CCOc2ccccc21)c1cnc2c(-c3cccc(C(F)(F)F)c3)csc2c1N1CC(F)C1 [Compound 93] | > 30 µM | 
23 | O=C(N[C@H]1CCOc2ccccc21)c1cnc2c(-c3cc(F)cc(F)c3F)csc2c1NCCO [Compound 94] | > 30 µM | 
24 | CN(CCO)c1c(C(=O)N[C@H]2CCOc3ccccc32)cnc2c(-c3cc(F)cc(F)c3F)csc12 [Compound 95] | > 30 µM | 
25 | CN(C)c1c(C(=O)NC2COc3ccccc32)cnc2c(-c3cc(Cl)cc(Cl)c3)csc12 (stereo not shown) [Compound 96] | > 30 µM | 
26 | CN(C)c1c(C(=O)N[C@H]2CCOc3ccccc32)cnc2c(-c3cccc(OC(F)(F)F)c3)csc12 [Compound 97] | > 30 µM | 
27 | CN(C)c1cccc(-c2csc3c(N(C)C)c(C(=O)N[C@H]4CCOc5ccccc54)cnc23)c1 [Compound 98] | > 30 µM | 
28 | O=C(N[C@H]1CCc2ccccc21)c1cnc2c(-c3cccc(Cl)c3Cl)csc2c1N1CC(F)C1 [Compound 99] | > 30 µM | 
29 | O=C(N[C@@H]1COc2ccccc21)c1cnc2c(-c3cc(Cl)cc(Cl)c3)csc2c1N1CCOCC1 [Compound 100] | > 30 µM | 
30 | O=C(N[C@H]1CCOc2ccccc21)c1cnc2c(-c3cc(Cl)cc(Cl)c3)csc2c1N1CC(F)C1 [Compound 101] | > 30 µM | 
31 | Cc1sc2c(N(C)C)c(C(=O)N[C@H]3CCOc4ccccc43)cnc2c1-c1cc(F)cc(F)c1F [Compound 102] | > 30 µM | inhibition in vivo at 10 mg/kg (Haemonchus contortus): ≥ 80%
32 | Cc1sc2c(N(C)C)c(C(=O)N[C@H]3CCOc4ccccc43)cnc2c1-c1cc(F)cc(F)c1 [Compound 103] | > 30 µM | 
33 | Cc1sc2c(N(C)C)c(C(=O)N[C@H]3CCOc4ccccc43)cnc2c1-c1cccc(C(F)(F)F)c1 [Compound 104] | > 30 µM | 
34 | Cc1sc2c(N(C)C)c(C(=O)N[C@H]3CCOc4ccccc43)cnc2c1-c1cccc(OC(F)(F)F)c1 [Compound 105] | > 30 µM | 
35 | Cc1sc2c(N3CCOCC3)c(C(=O)N[C@H]3CCOc4ccccc43)cnc2c1-c1cc(F)cc(F)c1F [Compound 106] | > 30 µM | 
36 | Cc1sc2c(N3CCOCC3)c(C(=O)N[C@H]3CCOc4ccccc43)cnc2c1-c1cc(F)cc(F)c1 [Compound 107] | > 30 µM | 
37 | Cc1sc2c(N3CCOCC3)c(C(=O)N[C@H]3CCOc4ccccc43)cnc2c1-c1cccc(C(F)(F)F)c1 [Compound 108] | > 30 µM | 
38 | Cc1sc2c(N3CCOCC3)c(C(=O)N[C@H]3CCOc4ccccc43)cnc2c1-c1cccc(OC(F)(F)F)c1 [Compound 109] | > 30 µM | 
39 | Cc1sc2c(N3CCOCC3)c(C(=O)N[C@H]3CCc4ccccc43)cnc2c1-c1cc(F)cc(F)c1F [Compound 110] | > 30 µM | 
40 | Cc1sc2c(N3CCOCC3)c(C(=O)N[C@H]3CCc4ccccc43)cnc2c1-c1cc(F)cc(F)c1 [Compound 111] | > 30 µM | 
41 | Cc1sc2c(N3CCOCC3)c(C(=O)N[C@H]3CCc4ccccc43)cnc2c1-c1cccc(C(F)(F)F)c1 [Compound 112] | > 30 µM | 
42 | Cc1sc2c(N3CCOCC3)c(C(=O)N[C@H]3CCc4ccccc43)cnc2c1-c1cccc(OC(F)(F)F)c1 [Compound 113] | > 30 µM | 
